The results in this text go back to patent US7595401B2, “Therapeutic compounds and their use in cancer” (Myriad Pharmaceuticals, Inc., priority 2006, dated 2009).

The test system of one test is purified human Hsp90. The experiment in a line: Binding Assay: fluorescence polarization with BODIPY-labeled geldanamycin. As to conditions: 5 μM compound, BODIPY-GM 10 nM, Hsp90 30 nM. The method in brief: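 Compounds in 2% DMSO final compete with 10 nM BODIPY-GM for 30 nM purified human Hsp90, incubated overnight at room temperature in pH 7.3 HEPES buffer containing Na2MoO4 and DTT. Polarization (mP, ex/em 485/530) normalized to DMSO gives percent inhibition; autofluorescence-confounded data excluded.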
Background: Polarisation of emitted light reports the rotation of a fluorescent probe.
As usually defined, the % Inhibition is the change of the read-out against control, counted positive when it falls. Take `COc1c(F)cc(Sc2nc3c(N)ncn(CCC4CCN(C(C)=O)CC4)c-3n2)cc1Cl` [Example 570, 3-[2-(1-Acetylpiperidin-4-yl)ethyl]-8-[(3-chloro-5-fluoro-4-methoxyphenyl)thio]-3 H-purin-6-amine]: the “% Inhibition at 5 μM Compound Concentration” value (shortened to “% Inhibition”) is reported as 0.00%. Turning to `CC(=O)N1CCC(CCn2cnc(N)c3nc(Sc4ccc5c(c4)OC(F)(F)O5)nc2-3)CC1` [Example 572, 3-[2-(1-Acetylpiperidin-4-yl)ethyl]-8-[(2,2-difluoro-1,3-benzodioxol-5-yl)thio]-3 H-purin-6-amine], the “% Inhibition” value is on record as 0.00%. The same measure, in the same setting: the same measure for `N#CC1CCN(CCn2c(Sc3cc4c(cc3Br)OCO4)nc3ncnc(N)c32)CC1` [Example 576, 1-(2-{6-Amino-8-[(6-bromo-1,3-benzodioxol-5-yl)thio]-7 H-purin-7-yl}ethyl)piperidine-4 - carbonitrile]: 31%. As for `CC(C)N1CCC(CCn2c(Sc3cc4c(cc3Br)OCO4)nc3ncnc(N)c32)CC1` [Example 583, 8-[(6-Bromo-1,3-benzodioxol-5-yl)thio]-7-[2-(1-isopropylpiperidin-4-yl)ethyl]-7 H-purin-6-amine], the “% Inhibition” value came to 55.00%. On the same count and under the same terms, for `COc1ccc(CN2CCC(CCn3cnc(N)c4nc(Sc5cc6c(cc5Br)OCO6)nc3-4)CC2)cc1` [Example 595, 8-[(6-Bromo-1,3-benzodioxol-5-yl)thio]-3-{2-[1-(4-methoxybenzyl)piperidin-4-yl]ethyl}-3 H-purin-6-amine] the value was 43.00%. Same read-out and setting: for `Nc1ncn(CCC2CCN(C=O)CC2)c2nc(Sc3cc4c(cc3Br)OCO4)nc1-2` [Example 602, 4-(2-{6-Amino-8-[(6-bromo-1,3-benzodioxol-5-yl)thio]-3 H-purin-3-yl}ethyl)piperidine-1-carbaldehyde] the value was 31.00%.

In the case of `Nc1ncn(CC[C@H]2CCCN(C=O)C2)c2nc(Sc3cc4c(cc3Br)OCO4)nc1-2` [Example 603, (3R)-3-(2-{6-Amino-8-[(6-bromo-1,3-benzodioxol-5-yl)thio]-3 H-purin-3-yl}ethyl)piperidine-1-carbaldehyde], the “% Inhibition” value worked out at 4.00%.

As to `Nc1ncn(CCC2CC3CCC(C2)O3)c2nc(Sc3cc4c(cc3Br)OCO4)nc1-2` (stereo not drawn) [Example 606], the “% Inhibition” value worked out at 49.00%. Consider `CC12CCC(CC(CCn3cnc(N)c4nc(Sc5cc6c(cc5Br)OCO6)nc3-4)C1)O2` (stereo not drawn) [Example 608, 8-[(6-Bromo-1,3-benzodioxol-5-yl)thio]-3-{2-[1-methyl-8-oxabicyclo[3.2.1]oct-3-yl]ethyl}-3 H-purin-6-amine], for which the “% Inhibition” value came to 5.00%.

As to `CCn1nnnc1N1CCC(CCn2cnc(N)c3nc(Sc4cc5c(cc4Br)OCO5)nc2-3)CC1` [Example 611, 8-[(6-Bromo-1,3-benzodioxol-5-yl)thio]-3-{2-[1-(1-ethyl-1 H-tetrazol-5-yl)piperidin-4-yl]ethyl}-3 H-purin-6-amine], the “% Inhibition” value was found to be 22.00%.

The same test, now with this note: BODIPY-GM 10 nM, Hsp90 30 nM.
In general, IC50 refers to the concentration that inhibits the measured activity by half. High values mean weaker potency, low ones greater potency. On to `CC(=O)N1CCC(CCn2c(Sc3ccc4c(c3)OC(F)(F)O4)nc3c(N)ncnc32)CC1` [Example 571, 9-[2-(1-Acetylpiperidin-4-yl)ethyl]-8-[(2,2-difluoro-1,3-benzodioxol-5-yl)thio]-9 H-purin-6-amine], for which the IC50 is above 5000 nM. The compound `Nc1ncnc2c1nc(Sc1cc3c(cc1Br)OCO3)n2CCC1CCN(Cc2ccc(Cl)cc2)CC1` [Example 573, 8-[(6-Bromo-1,3-benzodioxol-5-yl)thio]-9-{2-[1-(4-chlorobenzyl)piperidin-4-yl]ethyl}-9 H-purin-6-amine] came in with an IC50 of 1400 nM. The same measure, in the same setting: the same measure for `Nc1ncnc2c1nc(Sc1cc3c(cc1Br)OCO3)n2CCNc1cccc2cccnc12` [Example 574, N-(2-{6-Amino-8-[(6-bromo-1,3-benzodioxol-5-yl)thio]-9 H-purin-9-yl}ethyl)quinolin-8-amine]: 1800 nM; for `N#CC1CCN(CCn2c(Sc3cc4c(cc3Br)OCO4)nc3c(N)ncnc32)CC1` [Example 575, 1-(2-{6-Amino-8-[(6-bromo-1,3-benzodioxol-5-yl)thio]-9 H-purin-9-yl}ethyl)piperidine-4-carbonitrile]: 800 nM; for `Nc1ncnc2c1nc(Sc1cc3c(cc1Br)OCO3)n2CCC1CCCN(CC(F)(F)F)C1` (stereo not drawn) [Example 577, 8-[(6-Bromo-1,3-benzodioxol-5-yl)thio]-9-{2-[1-(2,2,2-trifluoroethyl)piperidin-3-yl]ethyl}-9 H-purin-6-amine]: 140 nM. On the same count and under the same terms, the same measure for `Cc1cc(=O)n(CCn2c(Sc3cc4c(cc3Br)OCO4)nc3c(N)ncnc32)c(=O)[nH]1` [Example 578, 3-(2-{6-amino-8-[(6-bromo-1,3-benzodioxol-5-yl)thio]-9 H-purin-9-yl}ethyl)-6-methylpyrimidine-2,4 (1 H,3 H)-dione]: 550 nM; for `Nc1ncnc2c1nc(Sc1cc3c(cc1Br)OCO3)n2CCC1CCN(Cc2ccc(F)cc2)CC1` [Example 579, 8-[(6-Bromo-1,3-benzodioxol-5-yl)thio]-9-{2-[1-(4-fluorobenzyl)piperidin-4-yl]ethyl}-9 H-purin-6-amine]: 310 nM. On to `Nc1ncnc2c1nc(Sc1cc3c(cc1Br)OCO3)n2CCC1CCN(CC2CCCCC2)CC1` [Example 581, 8-[(6-Bromo-1,3-benzodioxol-5-yl)thio]-9-{2-[1-(cyclohexylmethyl)piperidin-4-yl]ethyl}-9 H-purin-6-amine], for which the half-maximal inhibitory concentration (IC50) was determined as 240 nM.

As for `CC(C)N1CCC(CCn2c(Sc3cc4c(cc3Br)OCO4)nc3c(N)ncnc32)CC1` [Example 582, 8-[(6-Bromo-1,3-benzodioxol-5-yl)thio]-9-[2-(1-isopropylpiperidin-4-yl)ethyl]-9 H-purin-6-amine], the IC50 came out at 900 nM. `Nc1ncnc2c1nc(Sc1cc3c(cc1Br)OCO3)n2CCN1CCCC1=O` [Example 584, 1-(2-{6-Amino-8-[(6-bromo-1,3-benzodioxol-5-yl)thio]-9 H-purin-9-yl}ethyl)pyrrolidin-2-one] displayed an IC50 of 1400 nM. The compound `Nc1ncnc2c1nc(Sc1cc3c(cc1Br)OCO3)n2CCC1CCN(CC(F)(F)F)CC1` [Example 585, 8-[(6-Bromo-1,3-benzodioxol-5-yl)thio]-9-{2-[1-(2,2,2-trifluoroethyl)piperidin-4-yl]ethyl}-9 H-purin-6-amine] gave an IC50 of 600 nM. Still for that read-out and setting: the same measure for `Nc1ncnc2c1nc(Sc1cc3c(cc1Br)OCO3)n2CCN1CCOC1=O` [Example 586, 3-(2-{6-Amino-8-[(6-bromo-1,3-benzodioxol-5-yl)thio]-9 H-purin-9-yl}ethyl)-1,3-oxazolidin-2-one]: 450 nM; for `Nc1ncnc2c1nc(Sc1cc3c(cc1Br)OCO3)n2CCC1CCCCN1CC1CCCCC1` (stereo not drawn) [Example 588, 8-[(6-Bromo-1,3-benzodioxol-5-yl)thio]-9-{2-[1-(cyclohexylmethyl)piperidin-2-yl]ethyl}-9 H-purin-6-amine]: above 2000 nM. Compound `COc1ccc(CN2CCCCC2CCn2c(Sc3cc4c(cc3Br)OCO4)nc3c(N)ncnc32)cc1` (stereo not drawn) [Example 590, 8-[(6-Bromo-1,3-benzodioxol-5-yl)thio]-9-{2-[1-(4-methoxybenzyl)piperidin-2-yl]ethyl}-9 H-purin-6-amine] displayed an IC50 of 500 nM. Still for that read-out and setting: for `Nc1ncnc2c1nc(Sc1cc3c(cc1Br)OCO3)n2CCC1CCCCN1C(=O)OCc1ccccc1` (stereo not drawn) [Example 592, Benzyl 2-(2-{6-amino-8-[(6-bromo-1,3-benzodioxol-5-yl)thio]-9 H-purin-9-yl}ethyl)piperidine-1-carboxylate] the value was above 5000 nM; for `COc1ccc(CN2CCC(CCn3c(Sc4cc5c(cc4Br)OCO5)nc4c(N)ncnc43)CC2)cc1` [Example 594, 8-[(6-Bromo-1,3-benzodioxol-5-yl)thio]-9-{2-[1-(4-methoxybenzyl)piperidin-4-yl]ethyl}-9 H-purin-6-amine], 270 nM; for `Nc1ncnc2c1nc(Sc1cc3c(cc1Br)OCO3)n2CCC1CCN(Cc2ccccc2)CC1` [Example 599, 9-[2-(1-Benzylpiperidin-4-yl)ethyl]-8-[(6-bromo-1,3-benzodioxol-5-yl)thio]-9 H-purin-6-amine], 260 nM. In turn, `CC1(C)COC(CCn2c(Sc3cc4c(cc3Br)OCO4)nc3c(N)ncnc32)CN1` (stereo not drawn) [Example 601, 8-[(6-Bromo-1,3-benzodioxol-5-yl)thio]-9-[2-(5,5-dimethylmorpholin-2-yl)ethyl]-9 H-purin-6-amine] displayed an IC50 above 8000 nM. The compound `Nc1ncnc2c1nc(Sc1cc3c(cc1Br)OCO3)n2CC[C@H]1CCCN(C=O)C1` [Example 604, (3R)-3-(2-{6-Amino-8-[(6-bromo-1,3-benzodioxol-5-yl)thio]-9 H-purin-9-yl}ethyl)piperidine-1-carbaldehyde] gave an IC50 of 190 nM. Same read-out and setting: the same measure for `Nc1ncnc2c1nc(Sc1cc3c(cc1Br)OCO3)n2CCC1CC2CCC(C1)O2` (stereo not drawn) [Example 605]: 56 nM; for `CC12CCC(CC(CCn3c(Sc4cc5c(cc4Br)OCO5)nc4c(N)ncnc43)C1)O2` (stereo not drawn) [Example 607, 8-[(6-Bromo-1,3-benzodioxol-5-yl)thio]-9-{2-[1-methyl-8-oxabicyclo[3.2.1]oct-3-yl]ethyl}-9 H-purin-6-amine]: 62 nM; for `Cn1nnnc1N1CCC(CCn2c(Sc3cc4c(cc3Br)OCO4)nc3c(N)ncnc32)CC1` [Example 609, 8-[(6-Bromo-1,3-benzodioxol-5-yl)thio]-9-{2-[1-(1-methyl-1 H-tetrazol-5-yl)piperidin-4-yl]ethyl}-9 H-purin-6-amine]: 45 nM. The same measure, in the same setting: the same measure for `CCn1nnnc1N1CCC(CCn2c(Sc3cc4c(cc3Br)OCO4)nc3c(N)ncnc32)CC1` [Example 610, 8-[(6-Bromo-1,3-benzodioxol-5-yl)thio]-9-{2-[1-(1-ethyl-1 H-tetrazol-5-yl)piperidin-4-yl]ethyl}-9 H-purin-6-amine]: 88 nM.
